Data from patent US20190142800A1, “SYNERGISTIC ANTIFUNGAL COMPOSITIONS AND METHODS THEREOF” (VYOME THERAPEUTICS LIMITED, priority 2016, published 2019).

Key:
[1] = tested on: C. albicans (ATCC-90028); assay: Checkerboard assay on C. albicans (ATCC-90028); assay type: cell-based, Candida albicans
Experimental: (§1) The synergy is measured by determining the fractional inhibitory concentration (FIC) value of the combination. This experimental set up, called checkerboard method, allows measurement of a desired effect (inhibition of fungal growth in this case) at different combinations of various concentrations of the two agents (antifungal agent and fatty acid/ester). […] No agent is added to the penultimate column on the right and the bottom row. The final column on the right is used for growth control (only inoculum in broth) and sterility control (broth alone, no inoculum). […] FIC value for each agent in a particular well of the checkerboard layout was calculated by dividing the agent concentration in that well by the established MIC value of the agent against the test organism (Hsieh et al., Synergy assessed by checkerboard: A critical Analysis, Diagn. Microbiol. Infect Dis. (1993) 16:343-349). FIC values for both agents in a particular well were calculated in this way followed by determination of the FIC index (sum of the FICs of each drug in the concerned well). […] Agents Chemother. (2010) 54(2): 602-609].
(§2) Using the checkerboard layout experimental setup described above (FIG. 1A), various medium-chain fatty acids were tested for their ability to potentiate the activity of a known antifungal agent. Concentrations above and below the MIC of each test agent were tested using serial dilution. The same procedure was expanded to test combinations of various medium-chain fatty acids C-1 to C-14 (such caprylic acid, undecylenic acid and lauric acid) and esters thereof, with antifungal agents from various classes including azoles, allylamines, benzylamines, zinc pyrithione and piroctone olamine against both susceptible and resistant Trichophyton spp. (filamentous fungus) and Candida spp. (yeast).
(§3) Potentiation of the activity of antimycotic agents using ester derivatives of medium chain fatty acids was tested in a standard, well accepted in vitro assay system to check for synergy. This experimental set up, called checkerboard method, allows measurement of a desired effect (inhibition of fungal growth in this case) at different combinations of various concentrations of two agents. A chosen medium chain fatty acid (C-1 to C-14) or its ester derivative was tested for its ability to potentiate the activity of a known antifungal agent (various classes) using the checkerboard layout. Various concentrations above and below the MIC of each test agent were tested using serial dilution in Sabouraud dextrose broth. […] FIC value for a drug in a particular well of the checkerboard layout is calculated by dividing the drug concentration in that well by the established MIC value of the drug against the test organism (Hsieh et al., Synergy assessed by checkerboard: A critical Analysis, Diagn. Microbiol. Infect Dis. (1993) 16:343-349). FIC values for both test agents in a particular well are calculated in this way followed by determination of the FIC index (sum of the FICs of each drug in the concerned well).

[2] = tested on: azole resistant C. albicans MTCC 227; assay: Checkerboard assay on azole resistant C. albicans MTCC 227; assay type: cell-based, Candida albicans; conditions: for MIC: Candida albicans, MTCC227, agent alone
Experimental: as §1, with “FIC” for “FIC value for each agent in a particular well of the checkerboard layout was calculated by dividing the agent concentration in that well by the established MIC value of the agent against the test organism (Hsieh et al., Synergy assessed by checkerboard: A critical Analysis, Diagn. Microbiol. Infect Dis. (1993) 16:343-349). FIC”, “Chemother.” for “Chemother. (2010) 54(2): 602-609].”
as §2
as §3, with “FIC” for “FIC value for a drug in a particular well of the checkerboard layout is calculated by dividing the drug concentration in that well by the established MIC value of the drug against the test organism (Hsieh et al., Synergy assessed by checkerboard: A critical Analysis, Diagn. Microbiol. Infect Dis. (1993) 16:343-349). FIC”

[3] = tested on: terbinafine resistant Trichophyton interdigitale (GTB-2S); assay: Checkerboard assay on terbinafine resistant Trichophyton interdigitale (GTB-2S); assay type: cell-based
Experimental: as §1, with “FIC” for “FIC value for each agent in a particular well of the checkerboard layout was calculated by dividing the agent concentration in that well by the established MIC value of the agent against the test organism (Hsieh et al., Synergy assessed by checkerboard: A critical Analysis, Diagn. Microbiol. Infect Dis. (1993) 16:343-349). FIC”, “Chemother.” for “Chemother. (2010) 54(2): 602-609].”
as §2
as §3, with “FIC” for “FIC value for a drug in a particular well of the checkerboard layout is calculated by dividing the drug concentration in that well by the established MIC value of the drug against the test organism (Hsieh et al., Synergy assessed by checkerboard: A critical Analysis, Diagn. Microbiol. Infect Dis. (1993) 16:343-349). FIC”

[4] = in combination with caprylic acid
[5] = in combination with glyceryl monocaprylate
[6] = antifungal in combination with caprylic acid
[7] = antifungal in combination with lauric acid
[8] = antifungal in combination with propylene glycol monocaprylate
[9] = antifungal in combination with undecylenic acid

N#C/C(=C1/SC[C@@H](c2ccc(Cl)cc2Cl)S1)n1ccnc1 [Luliconazole]
MIC ([1]; Candida albicans, ATCC90028, agent alone, Table 8): 7.5 µg/mL | Combination MIC ([1]; agent's MIC in combination luliconazole + caprylic acid): 0.117 µg/mL | Combination MIC ([1]; agent's MIC in combination luliconazole + glyceryl monocaprylate): 0.117 µg/mL | FIC ([1]; combination luliconazole + caprylic acid): 0.015 | FIC ([1]; combination luliconazole + glyceryl monocaprylate): 0.0156 | FIC index [1, 4]: 0.265 | Interaction [1, 4]: Synergistic (Combinations that gave FIC indices less than 1 were designated “synergistic”) | FIC index [1, 5]: 0.0781 | Interaction [1, 5]: Synergistic (Combinations that gave FIC indices less than 1 were designated “synergistic”) | MIC ([2]; Table 9, caprylic acid (C8) series): 8 µg/mL | MIC ([2]; Table 10, propylene glycol monocaprylate series): 8 µg/mL | MIC ([2]; Table 12, undecylenic acid (C11) series): 8 µg/mL | MIC ([2]; Table 13, lauric acid (C12) series): 8 µg/mL | Combination MIC ([2]; agent's MIC in combination antifungal + caprylic acid (partner: other agent of same combination no.)): 0.5 µg/mL | Combination MIC ([2]; agent's MIC in combination antifungal + lauric acid (partner: other agent of same combination no.)): 1 µg/mL | Combination MIC ([2]; agent's MIC in combination antifungal + propylene glycol monocaprylate (partner: other agent of same combination no.)): 0.5 µg/mL | Combination MIC ([2]; agent's MIC in combination antifungal + undecylenic acid (partner: other agent of same combination no.)): 1 µg/mL | FIC index [2, 6]: 0.3 | Interaction [2, 6]: Synergistic (Combinations that gave FIC indices less than 1 were designated “synergistic”) | FIC index [2, 7]: 0.25 | Interaction [2, 7]: Synergistic (Combinations that gave FIC indices less than 1 were designated “synergistic”) | FIC index [2, 8]: 0.187 | Interaction [2, 8]: Synergistic (Combinations that gave FIC indices less than 1 were designated “synergistic”) | FIC index [2, 9]: 0.187 | Interaction [2, 9]: Synergistic (Combinations that gave FIC indices less than 1 were designated “synergistic”) | FIC ([2]; combination antifungal + caprylic acid): 0.062 | FIC ([2]; combination antifungal + lauric acid): 0.125 | FIC ([2]; combination antifungal + propylene glycol monocaprylate): 0.0625 | FIC ([2]; combination antifungal + undecylenic acid): 0.125

CN(C/C=C/C#CC(C)(C)C)Cc1cccc2ccccc12 [Terbinafine]
MIC ([3]; Trichophyton interdigitale, agent alone, Table 7): 30 µg/mL | Agent MIC ([3]; agent alone, Table 7): 15 µg/mL | Combination MIC ([3]; agent's MIC in combination terbinafine or butenafine + caprylic acid): 0.117 µg/mL | Combination MIC ([3]; agent's MIC in combination terbinafine or butenafine + glyceryl monocaprylate): 0.468 µg/mL | FIC ([3]; combination terbinafine or butenafine + caprylic acid): 0.0078 | FIC ([3]; combination terbinafine or butenafine + glyceryl monocaprylate): 0.0312 | FIC index [3, 4]: 0.5007 | Interaction [3, 4]: Synergistic (Combinations that gave FIC indices less than 1 were designated “synergistic”) | FIC index [3, 5]: 0.531 | Interaction [3, 5]: Synergistic (Combinations that gave FIC indices less than 1 were designated “synergistic”) | Interaction ([3]; in combination with propylene glycol monocaprylate): Synergistic (Combinations that gave FIC indices less than 1 were designated “synergistic”)
